The results in this text go back to patent US10894782B2, “Modulators of P97 AAA ATPase activity” (University of Pittsburgh—Of the Commonwealth System of …, priority 2016, dated 2021).

Structures are written as SMILES. pIC50: −log10 of the molar value.

The first test deals with P97 (Homo sapiens (Human), UniProt P55072). Put plainly: P97 Biomolgreen ATPase assay, 200 μM ATP. The format is biochemical. The settings on record: P97 Biomolgreen, IC50 (μM).
Sequence of P97 (P55072 whole entry): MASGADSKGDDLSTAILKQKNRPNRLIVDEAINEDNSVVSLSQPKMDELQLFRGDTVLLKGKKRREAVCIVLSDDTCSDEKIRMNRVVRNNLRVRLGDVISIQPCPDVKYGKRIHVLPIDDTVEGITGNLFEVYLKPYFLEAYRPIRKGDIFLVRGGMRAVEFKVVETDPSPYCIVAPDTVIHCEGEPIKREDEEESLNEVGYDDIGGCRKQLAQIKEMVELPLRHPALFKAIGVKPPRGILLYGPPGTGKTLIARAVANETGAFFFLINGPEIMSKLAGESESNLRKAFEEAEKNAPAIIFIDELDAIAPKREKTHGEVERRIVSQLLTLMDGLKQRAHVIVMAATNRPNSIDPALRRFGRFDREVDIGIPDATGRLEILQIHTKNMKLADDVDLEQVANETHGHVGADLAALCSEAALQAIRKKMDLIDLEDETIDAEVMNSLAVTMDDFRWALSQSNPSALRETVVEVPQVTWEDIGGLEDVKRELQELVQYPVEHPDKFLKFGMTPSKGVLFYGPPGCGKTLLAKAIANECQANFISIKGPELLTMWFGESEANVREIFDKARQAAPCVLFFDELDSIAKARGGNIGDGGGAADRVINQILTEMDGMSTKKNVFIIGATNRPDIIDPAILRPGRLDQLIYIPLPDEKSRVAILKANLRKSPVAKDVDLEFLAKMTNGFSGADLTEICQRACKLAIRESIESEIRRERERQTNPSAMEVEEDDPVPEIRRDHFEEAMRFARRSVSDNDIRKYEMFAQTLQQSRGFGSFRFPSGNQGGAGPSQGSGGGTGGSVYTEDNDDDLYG
For `[2H]C1([2H])C([2H])([2H])C([2H])([2H])C([2H])(Sc2nnc(COc3ccc(C#CC(C)OC(=O)NC(C)C)c(C)c3)n2-c2cccnc2)C1([2H])[2H]` (stereo not drawn) [Compound 1], half-maximal inhibition (IC50) was put at 0.16 µM.

The compound `[2H]C1([2H])C([2H])([2H])C([2H])([2H])C([2H])(Sc2nnc(COc3ccc(C#CC(C)N4CCOCC4)c(C)c3)n2-c2cccnc2)C1([2H])[2H]` (stereo not drawn) [Compound 3] had an IC50 of 0.17 µM. This IC50 and that of the compound before are within 1.5-fold of each other.

The compound `[2H]C1([2H])C([2H])([2H])C([2H])([2H])C([2H])(Sc2nnc(COc3ccc(C#CCOC(=O)N4CCOCC4)c(C)c3)n2-c2cccnc2)C1([2H])[2H]` [Compound 6] registered an IC50 of 0.044 µM. This IC50 lies about 3.9-fold lower than the previous one.

In turn, `[2H]C1([2H])C([2H])([2H])C([2H])([2H])C([2H])(Sc2nnc(COc3ccc(C#CCOC(=O)NCC(F)(F)F)c(C)c3)n2-c2cccnc2)C1([2H])[2H]` [Compound 20] gave an IC50 of 0.034 µM. The IC50 values of the last two compounds are within 1.5-fold of each other.

Compound `[2H]C1([2H])C([2H])([2H])C([2H])([2H])C([2H])(Sc2nnc(COc3ccc(C#CCOC(=O)NCCN4CCN(C(C)C)CC4)c(C)c3)n2-c2cccnc2)C1([2H])[2H]` [Compound 21] had an IC50 of 0.034 µM.

As to `[2H]C1([2H])C([2H])([2H])C([2H])([2H])C([2H])(Sc2nnc(COc3ccc(C#CCOC(=O)NC(C)C)c(C)c3)n2-c2cccnc2)C1([2H])[2H]` [Compound 23], the IC50 worked out at 0.032 µM.

`[2H]C1([2H])C([2H])([2H])C([2H])([2H])C([2H])(Sc2nnc(COc3ccc(C#CCOC(=O)NC)c(C)c3)n2-c2cccnc2)C1([2H])[2H]` [Compound 24] gave an IC50 of 0.026 µM.

`[2H]C1([2H])C([2H])([2H])C([2H])([2H])C([2H])(Sc2nnc(COc3ccc(C#CC(C)O)c(C)c3)n2-c2cccnc2)C1([2H])[2H]` (stereo not drawn) [Compound 26] yielded an IC50 of 0.068 µM.

For the compound `[2H]C1([2H])C([2H])([2H])C([2H])([2H])C([2H])(Sc2nnc(COc3ccc(C#CC(C)OC)c(C)c3)n2-c2cccnc2)C1([2H])[2H]` (stereo not drawn) [Compound 27], 0.16 µM corresponded to half-maximal inhibition (IC50).

In the case of `[2H]C1([2H])C([2H])([2H])C([2H])([2H])C([2H])(Sc2nnc(COc3ccc(C#CCOC(=O)NCCc4ncnn4C)c(C)c3)n2-c2cccnc2)C1([2H])[2H]` [Compound 31], half-maximal inhibition (IC50) required 0.052 µM.

With `[2H]C1([2H])C([2H])([2H])C([2H])([2H])C([2H])(Sc2nnc(COc3ccc(C#CCOC(=O)NCCN4CCCN(C(C)C)CC4)c(C)c3)n2-c2cccnc2)C1([2H])[2H]` [Compound 32], half-maximal inhibition (IC50) was put at 0.023 µM. Against the preceding compound, the IC50 is about 2.3-fold lower.

For `[2H]C1([2H])C([2H])([2H])C([2H])([2H])C([2H])(Sc2nnc(COc3ccc(C#CCOC(=O)NCc4cc(C)on4)c(C)c3)n2-c2cccnc2)C1([2H])[2H]` [Compound 35], the IC50 is 0.064 µM.

Regarding `[2H]C1([2H])C([2H])([2H])C([2H])([2H])C([2H])(Sc2nnc(COc3ccc(C#CCOC)c(C)c3)n2-c2cccnc2)C1([2H])[2H]` [Compound 36], it took 0.069 µM to reach half-maximal inhibition (IC50).

As to `[2H]C1([2H])C([2H])([2H])C([2H])([2H])C([2H])(Sc2nnc(COc3ccc(C#CCOC(=O)N4CCC4)c(C)c3)n2-c2cccnc2)C1([2H])[2H]` [Compound 37], the IC50 turned out to be 0.07 µM. This IC50 and that of the compound before are within 1.5-fold of each other.

Turning to `[2H]C1([2H])C([2H])([2H])C([2H])([2H])C([2H])(Sc2nnc(COc3ccc(C#CCNC4CCN(C(C)C)CC4)c(C)c3)n2-c2cccnc2)C1([2H])[2H]` [Compound 38], the IC50 was 0.095 µM. The IC50 values of the last two compounds are within 1.5-fold of each other.

As for `[2H]C1([2H])C([2H])([2H])C([2H])([2H])C([2H])(Sc2nnc(COc3ccc(C#CCN4CCS(=O)(=O)CC4)c(C)c3)n2-c2cccnc2)C1([2H])[2H]` [Compound 41], 0.16 µM corresponded to half-maximal inhibition (IC50).

The test is the same for the next values; noted with them: read-out: P97 Biomolgreen, IC50.
For the compound `C#Cc1ccc(OCc2nnc(SC3CCCC3)n2-c2cccnc2)cc1C` [Compound 2], the pIC50 is 7.31.

Consider `Cc1cc(OCc2nnc(SC3C=CCCC3)n2-c2cccnc2)ccc1C#CCN` (stereo not drawn) [Compound 4], for which the pIC50 is 7.36.

For the compound `Cc1cc(OCc2nnc(SC3CCCC3)n2-c2cccnc2)ccc1C#CC#N` [Compound 5], the pIC50 was 7.68.

On to `Cc1ccc(S(=O)(=O)NCC#Cc2ccc(OCc3nnc(SC4C=CCCC4)n3-c3cccnc3)cc2C)cc1` (stereo not drawn) [Compound 7], for which the pIC50 is 6.89.

Consider `Cc1cc(OCc2nnc(SC3CCCC3)n2-c2cccnc2)ccc1C#CCN1CCOCC1` [Compound 8], for which the pIC50 was 7.41.

Turning to `Cc1cc(OCc2nnc(SC3CCCC3)n2-c2cccnc2)ccc1C#CCCc1ccccc1` [Compound 9], the pIC50 is 7.00.

On to `Cc1cc(OCc2nnc(SC3CCCC3)n2-c2cccnc2)ccc1C#CCNC(=O)C(C)(C)C` [Compound 10], for which the pIC50 was 7.04.

As to `Cc1cc(OCc2nnc(SC3CCCC3)n2-c2cccnc2)ccc1C#CCNC(C)C` [Compound 11], the pIC50 is 8.15.

With `COC(=O)NCC#Cc1ccc(OCc2nnc(SC3CCCC3)n2-c2cccnc2)cc1C` [Compound 12], the pIC50 is 7.54.

As for `Cc1cc(OCc2nnc(SC3CCCC3)n2-c2cccnc2)ccc1C#CCNS(C)(=O)=O` [Compound 13], the pIC50 was 7.30.

With `Cc1cc(OCc2nnc(SC3C=CCCC3)n2-c2cccnc2)ccc1C#CCNS(C)(=O)=O` (stereo not drawn) [Compound 14], the pIC50 is 7.46.

As for `Cc1cc(OCc2nnc(SC3C=CCCC3)n2-c2cccnc2)ccc1C#CCNS(=O)(=O)c1ccc(F)cc1` (stereo not drawn) [Compound 15], the pIC50 is 7.13.

Consider `Cc1cc(OCc2nnc(SC3C=CCCC3)n2-c2cccnc2)ccc1C#CCNC(C)C` (stereo not drawn) [Compound 16], for which the pIC50 is 7.26.

On to `Cc1cc(OCc2nnc(SC3C=CCCC3)n2-c2cccnc2)ccc1C#CCNC1CCCCC1` (stereo not drawn) [Compound 17], for which the pIC50 was 7.40.

For the compound `Cc1cc(OCc2nnc(SC3C=CCCC3)n2-c2cccnc2)ccc1C#CCNS(=O)(=O)C1CC1` (stereo not drawn) [Compound 18], the pIC50 is 7.46.

Regarding `Cc1cc(OCc2nnc(SC3C=CCCC3)n2-c2cccnc2)ccc1C#CCNC1CCN(C)CC1` (stereo not drawn) [Compound 19], the pIC50 was 7.44.

Take `Cc1cc(OCc2nnc(SC3CCCC3)n2-c2cccnc2)ccc1C#CCOC(=O)NC(C)C` [Compound 22]: the pIC50 was 7.57.

Consider `Cc1cc(OCc2nnc(SC3C=CCCC3)n2-c2cccnc2)ccc1C#CCN(C)S(C)(=O)=O` (stereo not drawn) [Compound 25], for which the pIC50 was 7.18.

Consider `Cc1cc(OCc2nnc(SC3C=CCCC3)n2-c2cccnc2)ccc1C#CC(C)(C)O` (stereo not drawn) [Compound 28], for which the pIC50 is 7.02.

For `Cc1cc(OCc2nnc(SC3C=CCCC3)n2-c2cccnc2)ccc1C#CCOC(=O)NCCN1CCN(C(C)C)CC1` (stereo not drawn) [Compound 29], the pIC50 is 7.72.

In the case of `Cc1cc(OCc2nnc(SC3C=CCCC3)n2-c2cccnc2)ccc1C#CCOC(=O)NCC1(N2CCN(C(C)C)CC2)CCC1` (stereo not drawn) [Compound 30], the pIC50 is 7.96.

Take `Cc1cc(OCc2nnc(SC3C=CCCC3)n2-c2cccnc2)ccc1C#CCNS(=O)(=O)N(C)C` (stereo not drawn) [Compound 33]: the pIC50 was 7.37.

For `Cc1cc(OCc2nnc(SC3C=CCCC3)n2-c2cccnc2)ccc1C#CC1(O)COC1` (stereo not drawn) [Compound 34], the pIC50 is 7.01.

In the case of `Cc1cc(OCc2nnc(SC3C=CCCC3)n2-c2cccnc2)ccc1C#CCNCc1ccc(F)cc1` (stereo not drawn) [Compound 39], the pIC50 is 6.96.

As for `Cc1cc(OCc2nnc(SC3C=CCCC3)n2-c2cccnc2)ccc1C#CCNC(=O)OC(C)(C)C` (stereo not drawn) [Compound 40], the pIC50 is 6.85.

As for `Cc1cc(OCc2nnc(SC3CCCC3)n2-c2cccnc2)ccc1C#CCNC(=O)OC(C)(C)C` [Compound 43], the pIC50 was 7.32.
